Test [1] deals with T1, Haem-containing sGC (recombinant soluble guanylate cyclase) (Rattus norvegicus, UniProt P20595).
T1 construct: made in house; host or cells: Sf9 insect cells (baculovirus)
T1 sequence (P20595 1-619): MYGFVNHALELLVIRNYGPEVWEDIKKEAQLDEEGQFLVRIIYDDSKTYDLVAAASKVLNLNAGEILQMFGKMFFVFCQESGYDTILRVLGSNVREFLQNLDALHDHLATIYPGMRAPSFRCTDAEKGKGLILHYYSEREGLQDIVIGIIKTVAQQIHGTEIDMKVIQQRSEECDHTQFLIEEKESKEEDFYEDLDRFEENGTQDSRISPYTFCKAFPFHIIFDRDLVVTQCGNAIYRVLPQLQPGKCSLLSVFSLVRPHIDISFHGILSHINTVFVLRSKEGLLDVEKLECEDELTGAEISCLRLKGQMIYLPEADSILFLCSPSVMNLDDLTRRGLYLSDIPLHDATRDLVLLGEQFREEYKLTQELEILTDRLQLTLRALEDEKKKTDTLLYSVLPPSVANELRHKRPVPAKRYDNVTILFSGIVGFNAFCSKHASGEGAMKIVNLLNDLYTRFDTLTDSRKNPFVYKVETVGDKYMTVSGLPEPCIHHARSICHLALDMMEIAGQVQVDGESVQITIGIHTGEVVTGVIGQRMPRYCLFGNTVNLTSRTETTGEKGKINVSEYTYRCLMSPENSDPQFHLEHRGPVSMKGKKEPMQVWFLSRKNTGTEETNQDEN
T1 sequence (P19686 1-690 partner): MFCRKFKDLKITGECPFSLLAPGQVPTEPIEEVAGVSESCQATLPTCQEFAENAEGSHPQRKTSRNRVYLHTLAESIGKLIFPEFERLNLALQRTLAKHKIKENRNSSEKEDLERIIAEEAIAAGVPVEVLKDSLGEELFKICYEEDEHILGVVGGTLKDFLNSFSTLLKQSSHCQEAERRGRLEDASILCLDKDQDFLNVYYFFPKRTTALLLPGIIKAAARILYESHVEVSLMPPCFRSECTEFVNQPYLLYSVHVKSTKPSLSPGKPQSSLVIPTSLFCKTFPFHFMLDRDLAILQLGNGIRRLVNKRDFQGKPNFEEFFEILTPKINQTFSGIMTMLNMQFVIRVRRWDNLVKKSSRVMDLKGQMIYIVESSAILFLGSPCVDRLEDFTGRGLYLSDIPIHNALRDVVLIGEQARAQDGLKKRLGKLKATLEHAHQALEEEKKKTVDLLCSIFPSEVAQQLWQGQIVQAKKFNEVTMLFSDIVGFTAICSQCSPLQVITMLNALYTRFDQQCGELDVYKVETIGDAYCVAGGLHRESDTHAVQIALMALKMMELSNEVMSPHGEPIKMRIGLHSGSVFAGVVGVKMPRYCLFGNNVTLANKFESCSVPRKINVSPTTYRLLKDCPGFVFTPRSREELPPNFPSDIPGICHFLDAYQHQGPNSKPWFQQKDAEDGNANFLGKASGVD
The experiment in a line: Stimulation of recombinant soluble guanylate cyclase (sGC) in vitro, haem-containing enzyme. The test is classed as biochemical. The note with it: 0.0 μM Example 5. An excerpt:
(§1) B-2. Stimulation of Recombinant Soluble Guanylate Cyclase (sGC) In Vitro:
Hoenicka, E. M. Becker, H. Apeler, T. Sirichoke, H. Schroeder, R. Gerzer and J.-P. Stasch, “Purified soluble guanylyl cyclase expressed in a baculovirus/Sf9 system: Stimulation by YC-1, nitric oxide, and carbon oxide”, J. Mol. Med. 77 (1999), 14-23. The haem-free guanylate cyclase is obtained by adding Tween 20 to the sample buffer (0.5% in the final concentration).
(§2) The activation of sGC by a test substance is reported as n-fold stimulation of the basal activity.

For another test, the system named is saphenous artery rings. The test is described as follows: Vasorelaxant effect in vitro (phenylephrine-contracted artery rings). Format: cell-based, Rabbits. The note with it: rabbit saphenous artery rings, contraction induced by phenylephrine. On the procedure:
B-1. Vasorelaxant Effect In Vitro:
Rabbits are anaesthetized and sacrificed by intravenous injection of thiopental sodium (about 50 mg/kg) and exsanguinated. The saphenous artery is removed and divided into rings 3 mm wide. The rings are mounted singly on in each case a pair of triangular hooks open at the end and made of 0.3 mm-thick special wire (Remanium®). Each ring is placed under an initial tension in 5 ml organ baths with Krebs-Henseleit solution which is at 37° C., is gassed with 95% O2/5% CO2 and has the following composition: NaCl 119 mM; KCl 4.8 mM; CaCl2×2H2O 1 mM; MgSO4×7H2O 1.4 mM; KH2PO4 1.2 mM; NaHCO3 25 mM; glucose 10 mM; bovine serum albumin 0.001%. The force of contraction is detected with Statham UC2 cells, amplified and digitized via A/D converters (DAS-1802 HC, Keithley Instruments, Munich) and recorded in parallel on chart recorders. Contractions are induced by addition of phenylephrine.
After several (generally 4) control cycles, the substance to be investigated is added in each further run in increasing dosage, and the height of the contraction achieved under the influence of the test substance is compared with the height of the contraction reached in the last preceding run. The concentration necessary to reduce the contraction reached in the preceding control by 50% is calculated from this (IC50). The standard application volume is 5 μl. The proportion of DMSO in the bath solution corresponds to 0.1%.

The target in test [2] is T2, Haem-free sGC (recombinant soluble guanylate cyclase) (Rattus norvegicus, UniProt P20595).
T2 construct: made in house; host or cells: Sf9 insect cells (baculovirus)
T2 sequence (P20595 1-619): T1 sequence (P20595 1-619)
T2 sequence (P19686 1-690 partner): T1 sequence (P19686 1-690 partner)
The test is described as follows: Stimulation of recombinant soluble guanylate cyclase (sGC) in vitro, haem-free enzyme. The test is classed as biochemical. The note with it: 10 μM ODQ, 0.0 μM Example 5. The method, then: as §1
Investigations on the stimulation of recombinant soluble guanylate cyclase (sGC) by the compounds according to the invention with and without sodium nitroprusside, and with and without the haem-dependent sGC inhibitor 1H-1,2,4-oxadiazole-(4,3a)-quinoxalin-1-one (ODQ) are carried out by the method described in detail in the following reference: M. Hoenicka, E. M. Becker, H. Apeler, T. Sirichoke, H. Schroeder, R. Gerzer and J.-P. Stasch, “Purified soluble guanylyl cyclase expressed in a baculovirus/Sf9 system: Stimulation by YC-1, nitric oxide, and […]”, J. Mol. Med. 77 (1999), 14-23. The haem-free guanylate cyclase is obtained by adding Tween 20 to the sample buffer (0.5% in the final concentration).
as §2

Experimental findings from patent publication US8609727B2, “Dicarboxylic acid derivatives and their use” (Bayer Intellectual Property GmbH, priority 2005, dated 2013) are described below.

Turning to `CCN(CC)[N+]([O-])=NO` [DEA/NO, 2-(N,N-diethylamino)diazenolate 2-oxide, reference compound], the “Stimulation (n-fold) Haem-containing sGC by DEA/NO alone” value in test [1] (0.1 μM DEA/NO) is given as 78.7 n-fold.
A word on the IC50: it is the concentration needed to halve the response being measured. In the case of `O=C(O)c1ccc(CCC(/C=C/c2ccccc2OCc2ccc(CCc3ccccc3)cc2)Cc2ccc(C(=O)O)cc2)cc1` (racemic) [Example 7, 4-[(4E)-3-(4-Carboxybenzyl)-5-(2-{[4-(2-phenylethyl)benzyl]oxy}phenyl)pent-4-en-1-yl]benzoic acid], the IC50 in the test on saphenous artery rings (Oryctolagus cuniculus) was 21 nM.
In the case of `CCCCCOc1ccccc1/C=C/C(CCc1ccc(C(=O)O)cc1)Cc1ccc(C(=O)O)cc1` (racemic) [Example 17, 4-{(4E)-3-(4-Carboxybenzyl)-5-[2-(pentyloxy)phenyl]pent-4-en-1-yl}benzoic Acid], the IC50 in the test with saphenous artery rings (Oryctolagus cuniculus) was determined as 1.1 nM.
As for `O=c1onc2cnc3ccccc3n12` [ODQ, 1H-1,2,4-oxadiazole-(4,3a)-quinoxalin-1-one, reference compound], the “Stimulation (n-fold) Haem-containing sGC with ODQ alone” value in test [1] (10 μM ODQ) amounted to 38.8 n-fold. Further, the “Stimulation (n-fold) Haem-free sGC with ODQ alone” value in test [2] worked out at 2.0 n-fold.
With `CC(C)(C)c1ccc(COc2ccccc2/C=C/C(CCc2ccc(C(=O)O)cc2)Cc2ccc(C(=O)O)cc2)cc1` (racemic) [Example 3, 4-[(4E)-5-{2-[(4-tert-Butylbenzyl)oxy]phenyl}-3-(4-carboxybenzyl)pent-4-en-1-yl]benzoic Acid], in the test on saphenous artery rings, the IC50 is 4.7 nM.
In turn, `O=C(O)c1ccc(CCC(/C=C/c2cc(F)ccc2OCc2ccc(C(F)(F)F)cc2)Cc2ccc(C(=O)O)cc2)cc1` (stereo not shown) [Example 55] displayed an IC50 with saphenous artery rings (Oryctolagus cuniculus) of 287 nM.
Same read-out and setting: the value for `O=C(O)c1ccc(CCC(/C=C/c2ccccc2OC(F)(F)c2ccc(C(F)(F)F)cc2)Cc2ccc(C(=O)O)cc2)cc1` (stereo not shown) [Example 50] was 370 nM.
In the test with saphenous artery rings, `CC(C)(C)c1ccc(COc2ccccc2/C=C/C(CCc2ccc(C(=O)O)cc2)Cc2ccc(C(=O)O)cc2)cc1` (racemic) [Example 2, 4-[(4E)-5-{2-[(4-tert-Butylbenzyl)oxy]phenyl}-3-(4-carboxybenzyl)pent-4-en-1-yl]benzoic Acid] yielded an IC50 of 0.54 nM.
As for `O=C(O)c1ccc(CCC(/C=C/c2ccccc2OCc2ccc(OC(F)(F)F)cc2)Cc2ccc(C(=O)O)cc2)cc1` (stereo not shown) [Example 45], the IC50 in the test on saphenous artery rings (Oryctolagus cuniculus) was found to be 6 nM. This counts as single-digit nanomolar.
Still for that read-out and setting: with `COc1ccccc1/C=C/C(CCc1ccc(C(=O)O)cc1)Cc1ccc(C(=O)O)cc1` (racemic) [Example 13, 4-[(4E)-3-(4-Carboxybenzyl)-5-(2-methoxyphenyl)pent-4-en-1-yl]benzoic Acid] the figure was 52.2 nM.
The same measure, in the same setting: with `O=C(O)c1ccc(CCC(/C=C/c2ccccc2OCc2ccc(C(F)(C(F)(F)F)C(F)(F)F)cc2)Cc2ccc(C(=O)O)cc2)cc1` (stereo not shown) [Example 44, 4-{(4E)-3-(4-Carboxybenzyl)-5-[2-({4-[1,2,2,2-tetrafluoro-1-(trifluoromethyl)ethyl]benzyl}oxy)-phenyl]pent-4-en-1-yl}benzoic Acid] the figure was 22 nM; with `O=C(O)c1ccc(CCC(/C=C/c2ccccc2OCCCCC(F)(F)F)Cc2ccc(C(=O)O)cc2)cc1` (racemic) [Example 42, 4-[(4E)-3-(4-Carboxybenzyl)-5-{2-[(5,5,5-trifluoropentyl)oxy]phenyl}pent-4-en-1-yl]benzoic Acid], 19 nM; with `O=C(O)c1ccc(CCC(/C=C/c2ccccc2OCc2cc(C(F)(F)F)cc(C(F)(F)F)c2)Cc2ccc(C(=O)O)cc2)cc1` (stereo not shown) [Example 48], 4 nM.
`O=C(O)c1ccc(CCC(C=Cc2ccccc2OCc2ccc(-c3ccc(C(F)(F)F)cc3)cc2)Cc2ccc(C(=O)O)cc2)cc1` (stereo not shown) [Example 10, 4-[(4E/Z)-3-(4-Carboxybenzyl)-5-(2-{[4′-(trifluoromethyl)biphenyl-4-yl]methoxy}phenyl)pent-4-en-1-yl]benzoic Acid]: in the test with saphenous artery rings (Oryctolagus cuniculus), the IC50 came out at 48 nM.
Same read-out and setting: with `O=C(O)c1ccc(CCC(/C=C/c2cc(F)ccc2OCc2ccc(C(F)(F)F)cc2)Cc2ccc(C(=O)O)cc2)cc1` (single isomer, unassigned) [Example 54, 4-[(4E)-3-(4-Carboxybenzyl)-5-(5-fluoro-2-{[4-(trifluoromethyl)benzyl]oxy}phenyl)pent-4-en-1-yl]benzoic Acid] the figure was 90 nM.
For `O=C(O)c1ccc(CCC(/C=C/c2ccccc2OCCCCCc2ccccc2)Cc2ccc(C(=O)O)cc2)cc1` (racemic) [Example 6, 4-((4E)-3-(4-Carboxybenzyl)-5-{2-[(5-phenylpentyl)oxy]phenyl}pent-4-en-1-yl)benzoic Acid], in the test on saphenous artery rings, the IC50 came out at 122 nM.
Take `O=C(O)c1ccc(CCC(/C=C/c2cc(F)ccc2OCc2ccc(OC(F)(F)F)cc2)Cc2ccc(C(=O)O)cc2)cc1` (stereo not shown) [Example 56]: the IC50 in the test with saphenous artery rings (Oryctolagus cuniculus) stood at 77 nM.
Same read-out and setting: with `O=C(O)c1ccc(CCC(/C=C/c2ccccc2OCCCC(F)(F)F)Cc2ccc(C(=O)O)cc2)cc1` (racemic) [Example 11, 4-{(4E)-3-(4-Carboxybenzyl)-5-[2-(4,4,4-trifluorobutoxy)phenyl]pent-4-en-1-yl}benzoic Acid] the figure was 129 nM.
